Reference: article PMC13065040 (PLOS One, 2026)
Entries after “also recorded” stand apart in the source; their conditions may differ.

Experiments:
MMP-2 [1] = biological target: T1, MMP-2 (Homo sapiens, UniProt P08253); assay: MMP-2 inhibition assay (Enzo kit, OmniMMP RED fluorogenic substrate); format: biochemical
T1 construct: purchased Enzo Life Sciences (MMP-2 drug discovery kit)
Protocol: The MMP-2 inhibition assay was performed using the Enzo Life Sciences MMP-2 drug discovery kit. and the quenched fluorogenic substrate OmniMMP RED. Reference substrate was diluted to a final concentration of 5 μM, while the MMP-2 enzyme was diluted to 58 mU/µL, and the N-Isobutyl-N-(4-methoxyphenylsulfonyl)glycyl hydroxamic acid (NNGH) inhibitor was diluted to a concentration of 1/200 in assay buffer. […] The assay was performed using a black 96-well microplate. Fluorescence was measured at excitation/emission wavelengths of 545/576 nm, with a cutoff at 570 nm using Gen5 microplate reader (BioTeK, Shoreline, WA). Baseline fluorescence was recorded before adding NNGH inhibitor which was used as a positive control for MMP-2 inhibition. Reaction mixtures in the plate were incubated at 37 °C for 10 min, and fluorescence was measured at 10 min intervals for the first 30 min, then at 30 min intervals until 2 h had elapsed. […] Statistical analysis was performed using ANOVA with GraphPad Prism software, version 10.0.3.

GBM cells = details: read-out: IC50, inhibition of migration of GBM cells; cited from earlier work
Excerpt: Ctx (Fig 2) is a 36-residue polypeptide from the scorpion Leiurus quinquestriatus. Ctx contains 8 cysteinyl residues, forming 4 disulfide bridges which help to stabilize its three-dimensional structure. […] However, conflicting data on the effects of Ctx on the glioma-specific chloride channel makes it difficu ...

MMP-2 [2] = biological target: T2, MMP-2 (Homo sapiens, UniProt P08253); assay: Surface plasmon resonance (SPR), immobilized MMP-2; format: binding; details: NTA chip, peptides 500 µM to 3.90 µM, pH 7.4
T2 construct: ProSpec Bio; Antibodies-Online; Elabscience; Abcam ENZ-769; ABIN7400042; PKSH033450
T2 sequence (P08253 110-660): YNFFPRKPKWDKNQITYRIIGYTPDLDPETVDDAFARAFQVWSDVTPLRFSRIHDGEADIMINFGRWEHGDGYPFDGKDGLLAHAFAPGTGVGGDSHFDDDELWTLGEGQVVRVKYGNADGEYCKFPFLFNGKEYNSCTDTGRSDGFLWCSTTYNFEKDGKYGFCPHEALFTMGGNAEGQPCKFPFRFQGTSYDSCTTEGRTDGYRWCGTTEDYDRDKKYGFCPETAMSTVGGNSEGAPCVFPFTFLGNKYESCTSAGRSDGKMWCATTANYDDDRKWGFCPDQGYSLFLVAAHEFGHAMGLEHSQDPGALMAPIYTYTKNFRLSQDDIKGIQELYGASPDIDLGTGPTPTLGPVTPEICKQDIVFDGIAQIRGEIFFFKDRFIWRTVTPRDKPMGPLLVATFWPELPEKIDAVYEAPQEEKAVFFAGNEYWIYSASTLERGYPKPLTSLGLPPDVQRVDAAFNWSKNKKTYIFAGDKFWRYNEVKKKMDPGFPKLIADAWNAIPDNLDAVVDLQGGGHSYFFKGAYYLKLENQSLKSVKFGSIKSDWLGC
Protocol: Surface plasmon resonance (SPR) reagents, plates, and the NTA chip were purchased from GE Healthcare Life Sciences, now Cytiva (Marlborough, MA, USA). Measurements were performed using the Biacore 8000 SPR System (Marlborough, MA. USA). The running buffer used for protein immobilization and peptide binding consisted of 20 mM Tris, 150 mM NaCl, […] and 0.0005% Tween-20, adjusted to pH 7.4. MMP-2 and NRP-1 were immobilized onto the NTA chip at 15 nM and 25 nM concentration, respectively. Peptides were injected over the immobilized proteins using two-fold serial dilutions from 500 µM to 3.90 µM. Three experiments with four replicates of each were performed. The SPR response curves generated from the Biacore Insight Evaluation Software were fitted to a steady-state affinity model to obtain an equilibrium dissociation constant (KD) for each peptide — protein interaction.

MMP-2 [3] = details: cited from earlier work
Excerpt: Ctx (Fig 2) is a 36-residue polypeptide from the scorpion Leiurus quinquestriatus. Ctx contains 8 cysteinyl residues, forming 4 disulfide bridges which help to stabilize its three-dimensional structure. […] However, conflicting data on the effects of Ctx on the glioma-specific chloride channel makes it difficu ... || Given the absence of change in melting temperature, the present result cannot confirm the notion that Ctx binds to the three fibronectin regions in the collagen binding domain [33].

Substance: Chlorotoxin [Ctx]
- MMP-2 enzymatic activity, percent of control (MMP-2 [1]; Ctx 1 µM, replicate 1): 118.933
- MMP-2 enzymatic activity, percent of control (MMP-2 [1]; Ctx 1 µM, replicate 2): 112.076
- MMP-2 enzymatic activity, percent of control (MMP-2 [1]; Ctx 1 µM, replicate 3): 102.494
- MMP-2 enzymatic activity, percent of control (MMP-2 [1]; Ctx 1 µM, replicate 4): 91.6233
- MMP-2 enzymatic activity, percent of control (MMP-2 [1]; Ctx 1 µM, replicate 5): 88.1016
- MMP-2 enzymatic activity, percent of control (MMP-2 [1]; Ctx 1 µM, replicate 6): 107.77
- MMP-2 enzymatic activity, percent of control (MMP-2 [1]; Ctx 1 µM, replicate 7): 112.009
- MMP-2 enzymatic activity, percent of control (MMP-2 [1]; Ctx 1 µM, replicate 8): 115.93
- MMP-2 enzymatic activity, percent of control (MMP-2 [1]; Ctx 5 µM, replicate 1): 109.471
- MMP-2 enzymatic activity, percent of control (MMP-2 [1]; Ctx 5 µM, replicate 2): 117.657
- MMP-2 enzymatic activity, percent of control (MMP-2 [1]; Ctx 5 µM, replicate 3): 107.159
- MMP-2 enzymatic activity, percent of control (MMP-2 [1]; Ctx 5 µM, replicate 4): 113.75
- MMP-2 enzymatic activity, percent of control (MMP-2 [1]; Ctx 5 µM, replicate 5): 100.089
- MMP-2 enzymatic activity, percent of control (MMP-2 [1]; Ctx 5 µM, replicate 6): 108.86
- MMP-2 enzymatic activity, percent of control (MMP-2 [1]; Ctx 5 µM, replicate 7): 121.511
- MMP-2 enzymatic activity, percent of control (MMP-2 [1]; Ctx 5 µM, replicate 8): 108.966
- MMP-2 enzymatic activity, percent of control (MMP-2 [1]; Ctx 10 µM, replicate 1): 86.2677
- MMP-2 enzymatic activity, percent of control (MMP-2 [1]; Ctx 10 µM, replicate 2): 99.1052
- MMP-2 enzymatic activity, percent of control (MMP-2 [1]; Ctx 10 µM, replicate 3): 97.4706
- MMP-2 enzymatic activity, percent of control (MMP-2 [1]; Ctx 10 µM, replicate 4): 94.5071
- MMP-2 enzymatic activity, percent of control (MMP-2 [1]; Ctx 10 µM, replicate 5): 60.0877
- MMP-2 enzymatic activity, percent of control (MMP-2 [1]; Ctx 10 µM, replicate 6): 92.3409
- MMP-2 enzymatic activity, percent of control (MMP-2 [1]; Ctx 10 µM, replicate 7): 113.684
- MMP-2 enzymatic activity, percent of control (MMP-2 [1]; Ctx 10 µM, replicate 8): 106.8
- MMP-2 enzymatic activity, percent of control (MMP-2 [1]; Ctx 15 µM, replicate 1): 86.879
- MMP-2 enzymatic activity, percent of control (MMP-2 [1]; Ctx 15 µM, replicate 2): 110.627
- MMP-2 enzymatic activity, percent of control (MMP-2 [1]; Ctx 15 µM, replicate 3): 103.344
- MMP-2 enzymatic activity, percent of control (MMP-2 [1]; Ctx 15 µM, replicate 4): 104.062
- MMP-2 enzymatic activity, percent of control (MMP-2 [1]; Ctx 15 µM, replicate 5): 43.5824
- MMP-2 enzymatic activity, percent of control (MMP-2 [1]; Ctx 15 µM, replicate 6): 117.856
- MMP-2 enzymatic activity, percent of control (MMP-2 [1]; Ctx 15 µM, replicate 7): 126.92
- MMP-2 enzymatic activity, percent of control (MMP-2 [1]; Ctx 15 µM, replicate 8): 120.528
- MMP-2 enzymatic activity, percent of control (MMP-2 [1]; Ctx 20 µM, replicate 1): 134.561
- MMP-2 enzymatic activity, percent of control (MMP-2 [1]; Ctx 20 µM, replicate 2): 108.926
- MMP-2 enzymatic activity, percent of control (MMP-2 [1]; Ctx 20 µM, replicate 3): 139.252
- MMP-2 enzymatic activity, percent of control (MMP-2 [1]; Ctx 20 µM, replicate 4): 98.6135
- MMP-2 enzymatic activity, percent of control (MMP-2 [1]; Ctx 20 µM, replicate 5): 53.8949
- MMP-2 enzymatic activity, percent of control (MMP-2 [1]; Ctx 20 µM, replicate 6): 135.226
- MMP-2 enzymatic activity, percent of control (MMP-2 [1]; Ctx 20 µM, replicate 7): 133.352
- MMP-2 enzymatic activity, percent of control (MMP-2 [1]; Ctx 20 µM, replicate 8): 121.591
- inhibition of MMP-2 enzymatic activity (Fig 10A) (MMP-2 [1]; Ctx at 1, 5, 10, 15 and 20 µM, compared to control inhibitor): did not inhibit; also recorded: not statistically significant
- inhibition of MMP-2 enzymatic activity (Fig 10B) (MMP-2 [1]; peptides at 1 µM, 50 µM and 100 µM, one-way ANOVA vs control): not statistically significant
- IC50 (GBM cells): 184 nM
- binding to MMP-2 by SPR (MMP-2 [2]): did not bind
- effect on the enzymatic activity of MMP-2 (MMP-2 [3]): no statistically significant effect
- inhibition of MMP-2 enzymatic activity (MMP-2 [3]): inhibits MMP-2 enzymatic activity
